Experimental data from patent US11992011B2, “Compounds for controlling plant pathogens” (VIB VZW, priority 2017, dated 2024).

Legend:
[1] = test system: Fusarium solani (isolate Fso18); test: Onion seedling emergence with PA seed coating, Fusarium solani (Example 12); type: in vivo; conditions: onion seeds with 300 μM PA coating vs mock coating
Protocol: (§1) Seed coatings were applied by dipping seeds in a coating solution containing 20 g/I high viscosity carboxymethylcellulose (Sigma-Aldrich, Saint Louis, USA) in distilled water as well as 300 μM of the target compound. Seeds were then dried overnight at room temperature.
(§2) Onion seeds were coated with a 300 μM PA solution as outlined in the chemical treatments section. F. oxysporum (isolate Foc26), F. solani (isolate Fso18) and F. proliferatum (isolate Fpr18) were originally extracted from Vietnamese onion fields. Inoculum was obtained as described in the fungal culture section. The inoculum was diluted to a concentration of 1.0×10^7 spores per ml with sterile PBS buffer. The coated seeds were then soaked in the spore solution for one hour. To avoid excessive PA leaching from the PA coating, 100 μM of PA was added to the spore solution.
(§3) After soaking in the PA solution, seeds were left to dry for thirty minutes. Twenty seeds were then sowed per pot in potting soil; three pots were used per treatment and per fungal isolate (for a total of 60 seeds per treatment-isolate combination). The pots were covered in cling film and left on a window sill at room temperature. After eight and ten days, the number of germinated seedlings per pot was counted.
(§4) Germination experiments were analyzed by fitting a three-parameter log-logistic model as implemented in the R drc package.

[2] = test system: Fusarium oxysporum (isolate Foc26); test: Onion seedling emergence with PA seed coating, Fusarium oxysporum (Example 12); type: in vivo; conditions: onion seeds with 300 μM PA coating vs mock coating
Protocol: as §1, §2, §3, §4

OsGNS5 = test: qRT-PCR in rice roots, OsGNS5 (Example 20); type: in vivo, Oryza sativa; conditions: rice cv. Bomba root tissue; same samples as Example 19
Protocol: After quality control, qPCR was carried out.
To test whether other defense hormones might be involved, genes responsive to jasmonic acid (the biosynthesis gene OsAOS2) and auxin (the auxin conjugating enzyme OsGH3.1) were investigated. Moreover, the callose-degrading enzyme OsGNS5, downregulation of which is associated with basal defense, was also investigated. The qRT-PCR analysis was performed on the same samples used in the previous Example.

## O=C(O)c1ccc2c(c1)OCO2 [PA, Piperonylic acid]
[1]
  improvement of seedling emergence: +27%
[2]
  improvement of seedling emergence: +42%
OsGNS5
  Fold change vs. control, OsGNS5 expression: 0.41
